Assay results as given in patent publication US20050043314A1, “Substituted alkylaminopyridazinone derivatives, process for the preparation thereof and pharmaceutical composition containing the same” (priority 2001, published 2005).

Legend:
[1] = system: male Wistar rats; experiment: Vogel lick-conflict (drinking conflict) test; type: in vivo, rat; conditions: intraperitoneally, 30 min prior to test; number of tolerated shocks
Procedure: Experiments were performed in a PC operated system (LIIKOSYS, Experimetria, Hungary) consisted of 8 test chambers (20 cm×20 cm×20 cm Plexiglas boxes) each of which was equipped with a water fountain system mounted at appropriate height on the wall of the chamber and metal grid floor for delivering electric shocks. 160-180 g male Wistar rats (N═8) were deprived of drinking water 48 h and fasted for 24 h prior to test. Test and reference compounds or vehicle were administered intraperitoneally, 30 min prior to test. All procedures were carried out in a quiet, air-conditioned room between 07:30 and 13:00 h at an ambient temperature of 23±2° C. At the beginning of the test the animals were placed in the test chamber where they had free access to drinking water for a 30 s grace period. After that, electric shocks (600 μA, 0.6 s) were applied through the drinking spout following every 20 licks during the 5 min test period (Vogel et al, 1971). Number of punished licks were recorded and stored by an IBM compatible computer. Means±SEM of numbers of tolerated shocks were calculated in each group, statistical analysis of data was performed by one way ANOVA followed by Duncan's test (STATISTICA). Diazepam [7-chloro-1,3-dihydro-1-methyl-5-phenyl-2H-1,4-benzodiazepine-2-one] was used as the reference substance.

[2] = system: mouse; experiment: Inhibition of spontaneous motor activity (Dews instrument); type: in vivo; conditions: per os, 60 min before test, 30 min recording; sedative effect
Procedure: The effect on spontaneous motor activity was investigated according to Borsy and co-workers [Borsy, J. et al, Arch. Int. Pharmacodyn., 124, 180-190 (1960)] in a ten channel Dews instrument, with 1-1 animal in each channel. Animals were placed into the instrument 60 min after per os treatment with either vehicle or test compound, and interruptions of infrared beams were recorded for 30 min. […] Diazepam was used as the reference substance.

[3] = system: Male Sprague-Dawley rats; experiment: Elevated plus-maze test in rats; type: in vivo, rat; conditions: 60 min after treatment, minimal effective dose regarding time spent in the open arms
Text: Test have been performed as described by Pellow and co-workers [J.Neurosci. Methods, 14, 149 (1985)]. A wooden cross, 15 cm wide with 100 cm long arms was used for the experiments. The sides and ends of two opposite arms of the cross were equipped with 40 cm high walls, however, the arms were open to the […] central area (closed arms). The two other opposite arms were not encircled by walls (open arms).
Male Sprague-Dawley rats weighing 200-220 g were used for the experiments. The animals were placed in the central area of the equipment 60 min after treatment and the following four parameters have been observed for the 5 min test time: • time spent in the open arms, • time spent in the closed arms, • number of entries into the open arms, • number of entries into the closed arms.
The effect was expressed as percent increase in either the time (measured in sec) spent in the open arms or number of entries into the open arms. MEDs (minimal effective dose) were determined for each compound regarding the time spent in the open arms
Buspirone [8-{4-[4-(2-pyrimidinyl)-1-piperazinyl]butyl}-8-azaspiro[4,5]decane-7,9-dione] was used as the reference substance.

[4] = system: male Wistar rats; experiment: Effects on blood pressure in conscious, freely moving rats (radiotelemetry); type: in vivo, rat
Text: A 7 day postoperative recovery period was allowed.
None of the compounds examined reduced blood pressure of the test animals.

Row | Compound | MED in mg/kg ip. [1] [mg/kg] | ID50 in mg/kg po. [2] [mg/kg] | melting point [°C] | MED in mg/kg po. [3] [mg/kg] | Results of statistical evaluation ([4]; blood pressure compared to placebo, N.S. = Not significant statistically, two-way ANOVA with Scheffe's post hoc test) | Mean blood pressure after treatment with test compound, Mean ([4]; mean arterial blood pressure for 6 hours after oral treatment, conscious rats) [mmHg]
1 | O=c1cc(NCCN2CCN(c3ccccn3)CC2)cn[nH]1 [Example 4, 5-[2-(4-pyridin-2-ylpiperazine-;1-yl)ethylamino]-2H-pyridazine-3-one] | 10.0 | – | – | – | – | –
2 | O=c1cc(NCCN2CCN(c3ncccn3)CC2)cn[nH]1 [Example 5, 5-[2-(4-pyrimidin-2-ylpiperazine-1-yl)ethylamino]-2H-pyridazine-3-one] | 20.0 | >100.0 | 199 to 201 | – | – | –
3 | O=c1cc(NCCN2CCN(c3ccccc3)CC2)cn[nH]1 [Example 3, 5-{2-[4phenylpiperazine-1-yl]ethylamino}2H-pyridazine-3-one] | 5.0 | 60.0 | 147 to 149 | 0.1 | – | –
4 | CN1C(=O)CN=C(c2ccccc2)c2cc(Cl)ccc21 [Diazepam, 7-chloro-1,3-dihydro-1-methyl-5-phenyl-2H-1,4-benzodiazepine-2-one, reference compound] | 5.0 | 7.0 | – | – | – | –
5 | O=c1cc(NCCN2CCN(c3ccc(F)cc3)CC2)cn[nH]1 [Example 7, 5-{2-[4-(4-fluorophenyl)piperazine-1-yl]ethyl-amino]-2H-pyridazine-3-one] | 20.0 | – | 96 to 98 | – | N.S. | 92.7
6 | 5-{2-[4-(methoxytrifluoromethylphenyl)-piperazine-1-yl]-ethylamino}-2H-pyridazine-3-one trihydrochloride [Example 1] | 20.0 | – | – | – | – | –
7 | O=c1cc(NCCN2CCN(c3ccccc3F)CC2)cn[nH]1 [Example 2, 5-{2-[4-(2-fluorophenyl)piperazine-1-yl]ethyl-amino}-2H-pyridazine-3-one] | 20.0 | 21.0 | 103 to 105 | – | – | –
